In ChEMBL document CHEMBL1201862, “PubChem BioAssay data set” (2004):
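Five compound concentrations were applied to cells in 96-well plates for 48 hours; endpoints were derived by simple linear interpolation of the resulting dose-response curve. At the GI50, growth is halved.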 Active and inactive are the calls of the source. Cut-off read from the data, not from the text of the source: active = GI50 up to about 1.1 µM and inactive = higher.

Assays:
Assay in all cases: DTP human tumour cell line panel, 48 h
RPMI-8226 = tested on: RPMI-8226
OVCAR-5 = tested on: OVCAR-5
SK-MEL-5 = tested on: SK-MEL-5
SR = tested on: SR
COLO 205 = tested on: COLO 205
SNB-75 = tested on: SNB-75
MDA-MB-231 = tested on: MDA-MB-231
KM12 = tested on: KM12
OVCAR-3 = tested on: OVCAR-3
BT-549 = tested on: BT-549
HT-29 = tested on: HT-29
UACC-257 = tested on: UACC-257
MDA-MB-435 = tested on: MDA-MB-435
SF-295 = tested on: SF-295
HCC 2998 = tested on: HCC 2998
786-0 = tested on: 786-0
SF-268 = tested on: SF-268
HL-60 = tested on: HL-60
LOX IMVI = tested on: LOX IMVI
A498 = tested on: A498
M14 = tested on: M14
A549 = tested on: A549
OVCAR-4 = tested on: OVCAR-4
NCI/ADR-RES = tested on: NCI/ADR-RES
SW-620 = tested on: SW-620
DU-145 = tested on: DU-145
Hs-578T = tested on: Hs-578T
CAKI-1 = tested on: CAKI-1
SK-MEL-2 = tested on: SK-MEL-2
SF-539 = tested on: SF-539
K562 = tested on: K562
PC-3 = tested on: PC-3
HOP-92 = tested on: HOP-92
T47D = tested on: T47D
SK-OV-3 = tested on: SK-OV-3
MCF7 = tested on: MCF7
HCT-15 = tested on: HCT-15
HOP-62 = tested on: HOP-62
MOLT-4 = tested on: MOLT-4
Malme-3M = tested on: Malme-3M
SK-MEL-28 = tested on: SK-MEL-28
NCI-H226 = tested on: NCI-H226
HCT-116 = tested on: HCT-116
NCI-H522 = tested on: NCI-H522
SNB-19 = tested on: SNB-19
IGROV-1 = tested on: IGROV-1
NCI-H23 = tested on: NCI-H23
NCI-H460 = tested on: NCI-H460
MDA-N = tested on: MDA-N
UACC-62 = tested on: UACC-62
TK-10 = tested on: TK-10
UO-31 = tested on: UO-31
SN12C = tested on: SN12C
OVCAR-8 = tested on: OVCAR-8
RXF 393 = tested on: RXF 393
CCRF-CEM = tested on: CCRF-CEM
EKVX = tested on: EKVX
ACHN = tested on: ACHN
U-251 = tested on: U-251

Measured: GI50

O=[N+]([O-])c1ccccc1OCCOc1ccccc1[N+](=O)[O-]
inactive: RPMI-8226 > 100 µM | OVCAR-5 > 100 µM | SK-MEL-5 > 100 µM | SR > 100 µM | COLO 205 > 100 µM | SNB-75 > 100 µM | MDA-MB-231 96.2 µM | KM12 > 100 µM | OVCAR-3 > 100 µM | BT-549 > 100 µM | HT-29 > 100 µM | UACC-257 > 100 µM | MDA-MB-435 > 100 µM | SF-295 > 100 µM | HCC 2998 > 100 µM | 786-0 > 100 µM | SF-268 > 100 µM | HL-60 > 100 µM | LOX IMVI > 100 µM | A498 > 100 µM | M14 > 100 µM | A549 > 100 µM | OVCAR-4 > 100 µM | NCI/ADR-RES > 100 µM | SW-620 > 100 µM | DU-145 > 100 µM | Hs-578T > 100 µM | CAKI-1 > 100 µM | SK-MEL-2 > 100 µM | SF-539 > 100 µM | K562 > 100 µM | PC-3 > 100 µM | HOP-92 71.8 µM | T47D > 100 µM | SK-OV-3 > 100 µM | MCF7 > 100 µM | HOP-62 > 100 µM | MOLT-4 > 100 µM | Malme-3M > 100 µM | SK-MEL-28 > 100 µM | NCI-H226 > 100 µM | HCT-116 > 100 µM | NCI-H522 > 100 µM | SNB-19 > 100 µM | IGROV-1 > 100 µM | NCI-H23 > 100 µM | NCI-H460 > 100 µM | MDA-N > 100 µM | UACC-62 > 100 µM | TK-10 > 100 µM | UO-31 > 100 µM | SN12C > 100 µM | OVCAR-8 64.6 µM | RXF 393 > 100 µM | CCRF-CEM > 100 µM | EKVX > 100 µM | ACHN > 100 µM | U-251 > 100 µM
> 100 µM: HCT-15
